Measurements: US6589956B2, “Benzenesulphonamide compounds” (Les Laboratoires Servier, priority 2001, dated 2003)

Legend:
[1] = tested on: platelets in human platelet-rich plasma (TXA2 agonist U46619-induced aggregation); assay: Platelet aggregation in man induced by the TXA2 agonist U46619; assay type: cell-based; details: human PRP, U46619 1 μM, read-out: IC50, inhibition of platelet aggregation induced by the TXA2 agonist
Protocol: (§1) Venous blood is obtained from human volunteers who have not taken aspirin for at least 14 days prior to the experiment. The blood is removed over sodium citrate (0.109 M) (1 vol. of citrate over 9 vol. of blood). Platelet-rich plasma (PRP) is obtained by centrifugation (20° C.) at 200 g for 10 minutes. The number of platelets is on average. 250000 PL/mm^3. The PRP is stored at room temperature until the test and is used within 2 hours of having been taken. The TXA2 agonist U46619 is used at a concentration of 1 μM and 5-hydroxytryptamine is used at a concentration of 10 μM, the latter in the presence of 0.3 μM adenosine diphosphate and 1 μM adrenalin.

[2] = tested on: platelets in human platelet-rich plasma (5-hydroxytryptamine-induced aggregation); assay: Platelet aggregation in man induced by 5-hydroxytryptamine; assay type: cell-based; details: human PRP, 5-hydroxytryptamine 10 μM in the presence of 0.3 μM adenosine diphosphate and 1 μM adrenalin, read-out: IC50, inhibition of platelet aggregation produced by 5-hydroxytryptamine
Protocol: as §1

For `O=C(O)CCn1cc(CCN2CCN(c3nsc4ccccc34)CC2)c2cc(CCNS(=O)(=O)c3ccc(Cl)cc3)ccc21` [Example 6, 3-[3-{2-[4-(1,2-Benzisothiazol-3-yl)-1-piperazinyl]ethyl}-5-(2-{[(4-chlorophenyl)sulphonyl]amino}ethyl)-1H-indol-1-yl]propanoic Acid], the IC50 [1] was 1500 nM and the IC50 [2] was 3000 nM.
